Read-outs that look alike come from different tables or passages of the source.
Legend:
[1] = tested on: NO production in LPS-stimulated RAW264.7 cells; assay: Inhibition of nitric oxide (NO) production in LPS-stimulated RAW264.7 cells (Griess reagent); format: cell-based; settings: 1 μg/mL LPS, read-out: IC50 value, NO production inhibitory effect
Description: (§1) RAW264.7 cells were cultured in Dulbecco’s modified essential medium (DMEM, Gibco). The cells were incubated at 37 °C in DMEM with 10% fetal bovine serum (FBS, Gibco), penicillin (100 U/mL, Gibco), and streptomycin sulfate (100 μg/mL, Gibco) under a humidified atmosphere containing 5% CO2. Briefly, 2 × 10^4 cells/well treated for 24 h with vehicle or compounds were examined for cell viability based on the MTT (3-(4,5-dimethylthiazol-2-yl)-2,5-diphenyltetrazolium bromide assay) method.[60] Survival of macrophage cells after treatment with compounds was measured at a wavelength of 570 nm.
(§2) RAW264.7 cells (2 × 10^4 cells/well) were stimulated with or without 1 μg/mL lipopolysaccharide (LPS, Sigma) for 24 h in the presence or absence of the test compounds at different concentrations. Afterward, 100 μL of the cell culture supernatant was mixed with 100 μL of Griess reagent.[61] The remaining cells from the Griess assay were then utilized to determine their viability by using the MTT colorimetric assay described above.

[2] = RAW264.7 cell viability (MTT) alongside the NO assay; settings: RAW264.7 cells
Description: as §1, §2

[3] = HepG2 cytotoxicity test (MTT, 48 h); settings: human, HepG2 cells
Description: (§3) Human hepatocellular carcinoma HepG2 cells were cultured in DMEM (Gibco) supplemented with 10% FBS (Gibco) and 1% antibiotic–antimycotic (Gibco, 15240062). Once cells reached approximately 80% confluence, they were washed with PBS and detached using trypsin-EDTA (Gibco, 25200072) at 37 °C for 5 min. Cells were then seeded into 96-well plates at a density of 3 × 10^4 cells per well (100 μL/well) and incubated for 24 h at 37 °C in a humidified atmosphere with 5% CO2.
(§4) After the initial incubation, the medium was replaced with 100 μL of fresh medium containing the test compounds, and the cells were incubated for an additional 48 h. Cell viability was determined using the MTT assay, following standard protocols with untreated cells serving as the control. The percentage of cell viability was calculated using the following formula: % viability = [(number of viable cells)/(total cells)] × 100. The concentration of the test compounds was set at 80 μM for the screening.

in vitro [4] = assay: in vitro
Description: as §1, §2

in vitro [5] = settings: human
Description: as §3, §4

[6] = Hepatoprotective effect in acetaminophen-induced hepatotoxicity in HepG2 cell model (MTT); format: cell-based; settings: human, HepG2 cells, HepG2, 6 mM APAP, control without APAP 100%, read-out: Cell viability, treated only with acetaminophen (APAP)
Description: Compounds that maintained cell viability above 80% were subsequently tested for their hepatoprotective properties using an acetaminophen-induced hepatotoxicity model in HepG2 cells. […] Afterward, the cells were treated with the test compounds. Eight hours later, hepatotoxicity was induced by adding acetaminophen (6 mM, Sigma-Aldrich A7085) to the wells. Cell viability was measured using the MTT assay 36 h after acetaminophen exposure, and the results were used to assess the hepatoprotective effects of the compounds.

| SMILES | IC50 ([1]; Mus musculus, RAW264.7, 24 h) | viability at 48 h, 80 µM [2] | viability at 48 h, 80 µM [3] | other results |
| --- | --- | --- | --- | --- |
| C=C[C@H]1[C@H](O[C@@H]2O[C@H](CO)C(O)[C@H](O)[C@H]2O)OC=C(C(=O)O[C@H]2C[C@@H]3CCOC(=O)[C@@H]3[C@H]2C)[C@H]1CC(OC)OC (stereo partly shown) [Compound 3, gomphandranoside C] | 23.8 ± 2.6 µM | 103 ± 3.5% | > 80% | – |
| C=C[C@H]1[C@H](O[C@@H]2O[C@H](CO)[C@@H](O)[C@H](O)[C@H]2O)OC=C(C(=O)O[C@H]2C[C@@H]3C(C(=O)OC)=CO[C@@H](O[C@@H]4O[C@H](CO)[C@@H](O)[C@H](O)[C@H]4O)[C@@H]3[C@H]2C)[C@H]1C[C@H]1OC[C@H]2O[C@H](OC[C@H]3O[C@@](CO)(O[C@H]4O[C@H](CO)[C@@H](O)[C@H](O)[C@H]4O)[C@@H](O)[C@@H]3O)[C@H](O)[C@@H](O)[C@H]2O1 [Compound 4, gomphandranoside D] | 19.5 ± 0.3 µM | 95.1 ± 2.8% | > 80% | – |
| C=C[C@H]1[C@H](O[C@@H]2O[C@H](CO)[C@@H](O)[C@H](O)[C@H]2O)OC=C(C(=O)O[C@H]2C[C@@H]3C(C(=O)OC)=CO[C@@H](O[C@@H]4O[C@H](CO)[C@@H](O)[C@H](O)[C@H]4O)[C@@H]3[C@H]2C)[C@H]1C[C@H]1OC[C@H]2O[C@H](OC[C@H]3O[C@](O)(CO)[C@@H](O)[C@@H]3O)[C@H](O)[C@@H](O)[C@H]2O1 [Compound 5, gomphandranoside E] | 17.7 ± 0.4 µM | 98.9 ± 3.1% | > 80% | – |
| C=C[C@H]1[C@H](O[C@@H]2O[C@H](CO)[C@@H](O)[C@H](O)[C@H]2O)OC=C(C(=O)O[C@H]2C[C@@H]3C(C(=O)OC)=CO[C@@H](O[C@@H]4O[C@H](CO)[C@@H](O)[C@H](O)[C@H]4O)[C@@H]3[C@H]2C)[C@H]1C[C@@H]1O[C@@H]2[C@@H](O)[C@@H](OC[C@H]3O[C@@](CO)(O[C@H]4O[C@H](CO)[C@@H](O)[C@H](O)[C@H]4O)[C@@H](O)[C@@H]3O)O[C@H](CO)[C@@H]2O1 [Compound 6, gomphandranoside F] | 20.2 ± 1.1 µM | 94.6 ± 4.5% | > 80% | – |
| C=CC1C(CC(OC)OC)C(C(=O)O[C@H]2CC3C(C(=O)OC)=CO[C@@H](O[C@@H]4O[C@H](CO)[C@@H](O)[C@H](O)[C@H]4O)C3[C@H]2C)=CO[C@H]1O[C@@H]1O[C@H](CO)[C@@H](O)[C@H](O)[C@H]1O (stereo partly shown) [Compound 11, cantleyoside-dimethyl-acetal] | 26.2 ± 1.3 µM | 94.8 ± 3.7% | > 80% | – |
| C=CC1C(CC=O)C(C(=O)O[C@H]2CC3C(C(=O)OC)=CO[C@@H](O[C@@H]4O[C@H](CO)[C@@H](O)[C@H](O)[C@H]4O)C3[C@H]2C)=CO[C@H]1O[C@@H]1O[C@H](CO)[C@@H](O)[C@H](O)[C@H]1O (stereo partly shown) [Compound 12, cantleyoside] | 23.1 ± 1.7 µM | – | – | – |
| C=C[C@H]1[C@H](O[C@@H]2O[C@H](CO)[C@@H](O)[C@H](O)[C@H]2O)OC=C(C(=O)O[C@H]2C[C@@H]3C(C(=O)OC)=CO[C@@H](O[C@@H]4O[C@H](CO)[C@@H](O)[C@H](O)[C@H]4O)[C@@H]3[C@H]2C)[C@H]1CC=O [Compound 12, cantleyoside] | – | 93.9 ± 2.5% | > 80% | – |
| C=C[C@H]1[C@H](O[C@@H]2O[C@H](CO)[C@@H](O)[C@H](O)[C@H]2O)OC=C2C(=O)OCC[C@H]21 [Compound 13, sweroside] | – | – | – | IC50 ([1]; Mus musculus, 24 h): 36 ± 1.6 µM; viability at 48 h, 80 µM (in vitro [4]): 94.7 ± 4.2%; viability at 48 h, 80 µM (in vitro [5]): > 80% |
| COC(=O)C1=CO[C@@H](O[C@@H]2O[C@H](CO)[C@@H](O)[C@H](O)[C@H]2O)[C@@H]2[C@@H](C)[C@@H](O)C[C@H]12 [Compound 18, loganin] | 51.1 ± 1.8 µM | 98.1 ± 4% | > 80% | – |
| CC(=O)Nc1ccc(O)cc1 [acetaminophen (APAP), acetaminophen] | – | – | – | viability at 36 h, 6 mM [6]: 68.1% |

Now from value to compound, other results behind:

| IC50 ([1]; Mus musculus, RAW264.7, 24 h) | SMILES | viability at 48 h, 80 µM [2] | viability at 48 h, 80 µM [3] | other results |
| --- | --- | --- | --- | --- |
| 9.19 µM | COC(=O)C1=CO[C@@H](O[C@@H]2O[C@H](CO[C@H]3O[C@H](CO)[C@H](O)[C@H](O)[C@H]3O)[C@@H](O)[C@H](O)[C@H]2O)[C@@H]2[C@@H](C)[C@@H](O)C[C@H]12 [Compound 1, loganin 6′-O-α-D-galactopyranoside] | 97.7 ± 2.3% | – | IC50 ([1]; 24 h): 9.18 ± 0.3 µM |
| 14.7 ± 0.9 µM | C=C[C@H]1[C@H](O[C@@H]2O[C@H](CO)[C@@H](O)[C@H](O)[C@H]2O)OC=C(C(=O)O[C@H]2C[C@@H]3CCOC(=O)[C@@H]3[C@H]2C)[C@H]1C[C@@H](O)O[C@@H](O)C[C@@H]1C(C(=O)O[C@H]2C[C@@H]3CCOC(=O)[C@@H]3[C@H]2C)=CO[C@@H](O[C@@H]2O[C@H](CO)[C@@H](O)[C@H](O)[C@H]2O)[C@@H]1C=C [Compound 7, gomphandranoside G] | 95.3 ± 2.4% | > 80% | – |
| 14.4 ± 1.2 µM | C=C[C@@H]1[C@H](O[C@@H]2O[C@H](CO)[C@@H](O)[C@H](O)[C@H]2O)OC=C(C(=O)O[C@H]2C[C@@H]3C(C(=O)OC)=CO[C@H](O[C@@H]4O[C@H](CO)[C@@H](O)[C@H](O)[C@H]4O)[C@@H]3[C@H]2C)[C@@H]1/C(C=O)=C\C[C@H]1C(C(=O)O[C@H]2C[C@@H]3CCOC(=O)[C@@H]3[C@H]2C)=CO[C@@H](O[C@@H]2O[C@H](CO)[C@@H](O)[C@H](O)[C@H]2O)[C@H]1C=C [Compound 8, gomphandranoside H] | 100 ± 2.5% | – | – |
| 12.9 ± 0.5 µM | C=C[C@H]1[C@H](O[C@@H]2O[C@H](CO)[C@@H](O)[C@H](O)[C@H]2O)OC=C(C(=O)O[C@H]2C[C@@H]3C(C(=O)OC)=CO[C@@H](O[C@@H]4O[C@H](CO)[C@@H](O)[C@H](O)[C@H]4O)[C@@H]3[C@H]2C)[C@H]1C1=CO[C@H]2C[C@@H]1C[C@@H]1C(C(=O)O[C@H]3C[C@@H]4C(C(=O)OC)=CO[C@@H](O[C@@H]5O[C@H](CO)[C@@H](O)[C@H](O)[C@H]5O)[C@@H]4[C@H]3C)=CO[C@@H](O[C@@H]3O[C@H](CO)[C@@H](O)[C@H](O)[C@H]3O)[C@H]21 [Compound 9, gomphandranoside I] | 98.3 ± 2.6% | > 80% | – |
| 12.2 ± 1.1 µM | C=C[C@H]1[C@H](O[C@@H]2O[C@H](CO)[C@@H](O)[C@H](O)[C@H]2O)OC=C(C(=O)O[C@H]2C[C@@H]3C(C(=O)OC)=CO[C@@H](O[C@H]4O[C@H](CO)[C@@H](O)[C@H](O)[C@H]4O)[C@@H]3[C@H]2C)[C@H]1C1=COC[C@@H]2[C@H]3[C@@H](O[C@@H]4O[C@H](CO)[C@@H](O)[C@H](O)[C@H]4O)OC=C(C(=O)O[C@H]4C[C@@H]5C(C(=O)OC)=CO[C@@H](OC6O[C@H](CO)[C@@H](O)[C@H](O)[C@H]6O)[C@@H]5[C@H]4C)[C@H]3C[C@H]12 (stereo partly shown) [Compound 10, gomphandranoside K] | 96.7 ± 1.5% | – | – |
| 6.13 ± 0.5 µM | C=C[C@H]1[C@H](O[C@@H]2O[C@H](CO)[C@@H](O)[C@H](O)[C@H]2O)OC=C(C(=O)O[C@H]2C[C@@H]3C(C(=O)OC)=CO[C@@H](O[C@@H]4O[C@H](CO)[C@@H](O)[C@H](O)[C@H]4O)[C@@H]3[C@@H]2C)[C@H]1/C=C(\C=O)[C@@H]1C(C(=O)O[C@@H]2C[C@@H]3C(C(=O)OC)=CO[C@@H](O[C@@H]4O[C@H](CO)[C@@H](O)[C@H](O)[C@H]4O)[C@@H]3[C@@H]2C)=CO[C@@H](O[C@@H]2O[C@H](CO)[C@@H](O)[C@H](O)[C@H]2O)[C@@H]1C=C [Compound 15, dipsanoside A] | 99.5 ± 3.6% | > 80% | – |
| 17 ± 1.1 µM | C=C[C@H]1[C@H](O[C@@H]2O[C@H](CO)[C@@H](O)[C@H](O)[C@H]2O)OC=C(C(=O)O[C@H]2C[C@@H]3C(C(=O)OC)=CO[C@@H](O[C@@H]4O[C@H](CO)[C@@H](O)[C@H](O)[C@H]4O)[C@@H]3[C@H]2C)[C@H]1C[C@@H]1N[C@H](C(=O)O)Cc2c1[nH]c1ccccc21 [Compound 16, dipsaperine] | 95.2 ± 2.1% | > 80% | – |
| 14.4 ± 1.5 µM | C=C[C@H]1[C@H](O[C@@H]2O[C@H](CO)[C@@H](O)[C@H](O)[C@H]2O)OC=C(C(=O)O[C@H]2C[C@@H]3C(C(=O)OC)=CO[C@@H](O[C@@H]4O[C@H](CO)[C@@H](O)[C@H](O)[C@H]4O)[C@@H]3[C@@H]2C)[C@H]1/C=C(\C=O)[C@@H]1C(C(=O)O[C@H]2C[C@@H]3C(C(=O)OC)=CO[C@@H](O[C@@H]4O[C@H](CO)[C@@H](O)[C@H](O)[C@H]4O)[C@@H]3[C@H]2C)=CO[C@@H](O[C@@H]2O[C@H](CO)[C@@H](O)[C@H](O)[C@H]2O)[C@@H]1C=C [Compound 17, dipsanoside B] | 94.2 ± 4.6% | > 80% | – |
| 9.08 ± 0.5 µM | C[C@@H]1C[C@H]2[C@@H]3CCC4=CC(=O)C=C[C@]4(C)[C@@]3(F)[C@@H](O)C[C@]2(C)[C@@]1(O)C(=O)CO [dexamethasone, reference compound] | – | – | viability at 48 h, 20 µM [2]: 96.3 ± 2.6% |
